Measurements: ChEMBL document CHEMBL5346964, “Discovery of LNP1892: A Precision Calcimimetic for the Treatment of Secondary Hyperparathyroidism” (J Med Chem, 2023)
pIC50: −log10 of the molar value.

Columns and labels:
Rattus norvegicus [1] = assay: Chronic effect on parathyroid hormone in overnight fasted adenine diet-induced chronic kidney disease Wistar rat model plasma assessed as reduction in plasma PTH level at 3 mg/kg, po qd measured after 27 days of post treatment by sandwich ELISA analysis; format: functional; set-up: scale not given: the % may be the effect or the level left; conditions: time 27 day
[2] = Kinetic solubility of compound in FeSSIF upto 500 uM measured after 16 hrs under shaking condition by UV-visible method; format: physicochemical; conditions: read-out: Kinetic_solubility
[3] = Plasma clearance in Sprague-Dawley rat at 1 mg/kg, iv measured upto 24 hrs by LC/MS-MS analysis; format: ADME, organism-based
Rattus norvegicus [4] = assay: Subchronic effect on parathyroid hormone in overnight fasted adenine diet-induced chronic kidney disease Wistar rat model plasma assessed as reduction in plasma PTH level at 0.1 mg/kg, po qd measured after 27 days of post treatment by sandwich ELISA analysis; format: functional; set-up: scale not given: the % may be the effect or the level left; conditions: time 27 day
CYP2C9 = CYP2C9 (Homo sapiens, UniProt P11712); assay: Inhibition of CYP2C9 in human liver microsomes at 10 uM preincubated for 5 mins followed by NADPH addition by LC-MS/MS analysis relative to control; format: ADME, Microsome
[5] = Stability in rat plasma measured up to 4 hrs by LC-MS/MS method; format: ADME, cell-free; conditions: read-out: Stability
[6] = Metabolic stability in mouse liver S9 fraction measured upto 60 mins by LC-MS/MS method; format: ADME, subcellular; conditions: read-out: Stability
[7] = target: Delta-type opioid receptor (Homo sapiens) (UniProt P41143); assay: Inhibition of human recombinant DOP receptor at 10 uM relative to control
[8] = Cmax in mouse at 50 mg/kg per day, po via gavage administered for 13 weeks; format: ADME, organism-based; set-up: time 13 weeks, dose 50 mg/kg, route po; conditions: in vivo
[9] = Volume of distribution at steady state in Sprague-Dawley rat at 10 mg/kg, po administered as solution measured upto 24 hrs by LC-MS/MS analysis; format: ADME, organism-based; conditions: in vivo
[10] = Chemical stability of the compound at pH 2 measured after 0.5 to 4 hrs; format: physicochemical; conditions: buffer, time 0.5-4 hrs
[11] = AUC in Beagle dog at 5 mg/kg, po measured upto 24 hrs by LC/MS-MS analysis; format: ADME, organism-based, Canis lupus familiaris; set-up: dose 5 mg/kg, time < 24 hrs, route po; conditions: in vivo
[12] = Chemical stability of the compound in FaSSIF measured after 0.5 to 4 hrs; format: physicochemical; conditions: simulated gi fluid; time 0.5-4 hrs
[13] = Drug excretion in BALB/c mouse assessed as drug recovery in urine at 10 mg/kg, po; format: ADME, organism-based; conditions: read-out: Drug recovery
[14] = Metabolic stability in rat liver S9 fraction measured upto 60 mins by LC-MS/MS method; format: ADME, subcellular; conditions: read-out: Stability
CYP3A4 = CYP3A4 (Homo sapiens, UniProt P08684); assay: Inhibition of CYP3A4 in human liver microsomes at 10 uM preincubated for 5 mins followed by NADPH addition by LC-MS/MS analysis relative to control; format: ADME, Microsome
[15] = Kinetic solubility of compound upto 500 uM at pH 7.4 measured after 16 hrs under shaking condition by UV-visible method; format: physicochemical; conditions: buffer, read-out: Kinetic_solubility
[16] = Metabolic stability in human liver S9 fraction measured upto 60 mins by LC-MS/MS method; format: ADME, subcellular; conditions: read-out: Stability
[17] = Half life in cynomolgus monkey at 1 mg/kg, iv measured upto 24 hrs by LC/MS-MS analysis; format: ADME, organism-based, Macaca fascicularis; conditions: in vivo
[18] = Drug excretion in BALB/c mouse assessed as drug recovery in feces at 10 mg/kg, po; format: ADME, organism-based; conditions: faeces, read-out: Drug recovery
[19] = Stability in monkey plasma measured up to 4 hrs by LC-MS/MS method; format: ADME, cell-free, Macaca mulatta; conditions: rhesus monkey, read-out: Stability
Cytochrome P450 2A6 = target: T1, Cytochrome P450 2A6 (Homo sapiens, UniProt P11509); assay: Inhibition of CYP2A6 in human liver microsomes preincubated for 5 mins followed by NADPH addition by LC-MS/MS analysis; format: ADME, Microsome
T1 sequence (P11509 whole entry): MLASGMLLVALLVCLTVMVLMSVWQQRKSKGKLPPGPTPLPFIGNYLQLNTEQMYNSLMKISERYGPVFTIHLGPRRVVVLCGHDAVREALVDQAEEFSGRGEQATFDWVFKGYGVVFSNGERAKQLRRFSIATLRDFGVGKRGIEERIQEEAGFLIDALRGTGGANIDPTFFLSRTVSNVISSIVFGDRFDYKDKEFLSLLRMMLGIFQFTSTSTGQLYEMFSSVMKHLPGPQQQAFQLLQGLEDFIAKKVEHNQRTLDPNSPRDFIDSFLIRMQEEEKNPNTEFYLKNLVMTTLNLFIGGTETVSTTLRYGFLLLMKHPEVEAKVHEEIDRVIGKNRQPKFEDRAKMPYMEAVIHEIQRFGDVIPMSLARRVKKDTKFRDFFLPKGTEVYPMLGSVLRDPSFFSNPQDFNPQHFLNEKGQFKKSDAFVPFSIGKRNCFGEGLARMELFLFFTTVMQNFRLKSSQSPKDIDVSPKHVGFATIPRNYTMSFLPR

[20] = Drug excretion in BALB/c mouse assessed as drug recovery in urine at 1 mg/kg, iv; format: ADME, organism-based; conditions: read-out: Drug recovery
[21] = Chemical stability of the compound in FeSSIF measured after 0.5 to 4 hrs; format: physicochemical; conditions: simulated gi fluid; time 0.5-4 hrs
CYP2D6 = CYP2D6 (Homo sapiens, UniProt P10635); assay: Inhibition of CYP2D6 in human liver microsomes at 10 uM preincubated for 5 mins followed by NADPH addition by LC-MS/MS analysis relative to control; format: ADME, Microsome
[22] = Volume of distribution at steady state in BALB/c mouse at 1 mg/kg, iv measured upto 24 hrs by LC/MS-MS analysis; format: ADME, organism-based; conditions: in vivo, read-out: Vdss
Rattus norvegicus [23] = assay: Subchronic effect on parathyroid hormone in overnight fasted adenine diet-induced chronic kidney disease Wistar rat model plasma assessed as reduction in plasma PTH level at 1 mg/kg, po qd measured after 27 days of post treatment by sandwich ELISA analysis; format: functional; set-up: scale not given: the % may be the effect or the level left; conditions: time 27 day
[24] = Oral bioavailability in Beagle dog at 5 mg/kg measured upto 24 hrs by LC/MS-MS analysis; format: ADME, organism-based, Canis lupus familiaris; conditions: in vivo
[25] = Stability in human plasma measured up to 4 hrs by LC-MS/MS method; format: ADME, cell-free; conditions: read-out: Stability
[26] = target: T2, Adenosine receptor A1 (Homo sapiens) (UniProt P30542); assay: Inhibition of human recombinant A1 receptor at 10 uM relative to control
T2 sequence (whole entry): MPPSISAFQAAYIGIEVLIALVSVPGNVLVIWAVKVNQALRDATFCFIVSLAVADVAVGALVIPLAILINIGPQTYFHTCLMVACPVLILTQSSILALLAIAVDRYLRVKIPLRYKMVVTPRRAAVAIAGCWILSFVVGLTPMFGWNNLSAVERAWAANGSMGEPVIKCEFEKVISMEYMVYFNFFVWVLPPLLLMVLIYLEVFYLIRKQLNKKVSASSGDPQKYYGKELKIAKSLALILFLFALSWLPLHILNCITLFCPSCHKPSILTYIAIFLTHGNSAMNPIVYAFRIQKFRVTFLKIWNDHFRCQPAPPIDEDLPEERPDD

[27] = Microsomal stability in human liver microsomes assessed as parent compound remaining at 1 uM measured upto 30 mins in presence of NADPH by LC-MS/MS analysis; format: ADME, Microsome; conditions: liver microsomes, read-out: Stability
[28] = Plasma clearance in cynomolgus monkey at 1 mg/kg, iv measured upto 24 hrs by LC/MS-MS analysis; format: ADME, organism-based, Macaca fascicularis
[29] = Cmax in Sprague-Dawley rat at 100 mg/kg; format: ADME, organism-based; set-up: dose 100 mg/kg; conditions: in vivo

Sequence of CYP2D6 (P10635 whole entry): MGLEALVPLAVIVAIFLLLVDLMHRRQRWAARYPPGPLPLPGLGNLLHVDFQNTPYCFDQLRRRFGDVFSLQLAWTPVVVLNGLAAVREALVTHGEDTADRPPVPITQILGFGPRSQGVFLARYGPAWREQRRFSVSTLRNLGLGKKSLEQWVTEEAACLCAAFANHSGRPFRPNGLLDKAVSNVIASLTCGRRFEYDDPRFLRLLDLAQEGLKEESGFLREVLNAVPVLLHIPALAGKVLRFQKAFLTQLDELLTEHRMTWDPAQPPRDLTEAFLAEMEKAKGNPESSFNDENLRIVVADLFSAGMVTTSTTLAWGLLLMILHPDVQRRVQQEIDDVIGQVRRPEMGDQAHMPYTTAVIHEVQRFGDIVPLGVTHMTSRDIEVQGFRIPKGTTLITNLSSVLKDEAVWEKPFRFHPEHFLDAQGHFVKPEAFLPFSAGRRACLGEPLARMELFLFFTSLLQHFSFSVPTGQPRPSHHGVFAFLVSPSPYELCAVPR
Sequence of CYP3A4 (P08684 whole entry): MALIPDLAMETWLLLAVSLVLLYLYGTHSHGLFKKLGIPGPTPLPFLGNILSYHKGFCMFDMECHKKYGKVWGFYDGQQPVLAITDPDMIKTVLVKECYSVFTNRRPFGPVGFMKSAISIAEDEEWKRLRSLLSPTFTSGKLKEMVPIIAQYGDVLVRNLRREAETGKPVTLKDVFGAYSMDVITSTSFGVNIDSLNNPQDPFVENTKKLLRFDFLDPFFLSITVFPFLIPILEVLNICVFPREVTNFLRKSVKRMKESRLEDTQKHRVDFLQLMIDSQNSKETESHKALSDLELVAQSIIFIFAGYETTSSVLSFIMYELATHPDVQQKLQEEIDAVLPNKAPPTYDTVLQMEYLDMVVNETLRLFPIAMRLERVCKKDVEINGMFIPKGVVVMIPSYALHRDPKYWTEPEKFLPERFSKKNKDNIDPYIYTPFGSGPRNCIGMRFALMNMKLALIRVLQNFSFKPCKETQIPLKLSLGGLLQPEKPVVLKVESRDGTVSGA
Sequence of Delta-type opioid receptor (Homo sapiens) (P41143 whole entry): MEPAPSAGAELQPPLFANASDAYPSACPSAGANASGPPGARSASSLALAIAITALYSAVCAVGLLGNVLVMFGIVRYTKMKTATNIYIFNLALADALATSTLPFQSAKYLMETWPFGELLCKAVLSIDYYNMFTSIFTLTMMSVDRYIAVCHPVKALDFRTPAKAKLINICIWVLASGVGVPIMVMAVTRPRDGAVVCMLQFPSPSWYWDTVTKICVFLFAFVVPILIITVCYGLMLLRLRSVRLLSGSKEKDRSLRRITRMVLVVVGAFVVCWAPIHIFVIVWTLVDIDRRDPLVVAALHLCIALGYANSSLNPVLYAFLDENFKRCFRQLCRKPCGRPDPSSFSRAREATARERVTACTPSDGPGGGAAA
Sequence of CYP2C9 (P11712 whole entry): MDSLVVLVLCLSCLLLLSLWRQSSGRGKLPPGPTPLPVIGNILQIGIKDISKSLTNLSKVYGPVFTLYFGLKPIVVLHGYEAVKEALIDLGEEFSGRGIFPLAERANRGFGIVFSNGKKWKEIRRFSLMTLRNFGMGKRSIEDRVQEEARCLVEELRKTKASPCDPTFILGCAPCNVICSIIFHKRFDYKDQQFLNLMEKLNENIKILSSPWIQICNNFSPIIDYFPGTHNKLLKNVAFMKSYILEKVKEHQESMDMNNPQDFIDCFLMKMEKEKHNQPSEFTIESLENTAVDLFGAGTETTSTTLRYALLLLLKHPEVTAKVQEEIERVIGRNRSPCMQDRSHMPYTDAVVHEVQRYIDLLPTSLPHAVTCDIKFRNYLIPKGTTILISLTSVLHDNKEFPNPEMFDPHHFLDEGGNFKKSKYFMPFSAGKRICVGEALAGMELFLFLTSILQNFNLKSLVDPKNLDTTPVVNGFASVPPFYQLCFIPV

Cc1ccc([C@@H]2C[C@H](CN[C@H](C)c3cccc4ccccc34)Oc3ccccc32)cc1C(=O)O.Cl
Activity (Rattus norvegicus [1]): 83%
solubility kinetic at 16 h, 500 µM [2]: > 300 µM
clearance [3]: 4 mL/min/kg
Activity (Rattus norvegicus [4]): 62%
inhibition at 10 µM (CYP2C9): 0%
remaining at 4 h [5]: > 80%
remaining at 1 h [6]: > 80%
inhibition [7]: > 50%
Cmax [8]: 34800 ng/mL
Vdss [9]: 0.6 L/kg
Stability [10]: Stable
AUC at 24 h [11]: 63 µM·h
Stability [12]: Stable
dose excreted [13]: < 1%
remaining at 1 h [14]: > 80%
inhibition at 10 µM (CYP3A4): 0%
solubility kinetic at 16 h, 500 µM [15]: > 200 µM
remaining at 1 h [16]: > 80%
half-life [17]: 5 h
dose excreted [18]: 23%
remaining at 4 h [19]: > 80%
pIC50 (Cytochrome P450 2A6): 4.39
dose excreted [20]: < 1%
Stability [21]: Stable
inhibition at 10 µM (CYP2D6): 0%
Vd [22]: 0.6 L/kg
Activity (Rattus norvegicus [23]): 83%
bioavailability [24]: 79%
remaining at 4 h [25]: > 80%
inhibition [26]: > 50%
remaining at 0.5 h, 1 µM [27]: 73%
clearance [28]: 151 mL/min/kg
Cmax [29]: 53 µM
